Results taken from patent publication US6989451B2, “Heterocyclic compounds and uses thereof” (Valeant Research & Development, priority 2002, dated 2006).

Experiments:
[1] = biological target: T1, GST-hMEK1 and mERK2 (Homo sapiens, UniProt Q02750); assay type: biochemical; conditions: minimum concentration causing 50% inhibition in vitro assays; MEK kinase inhibition
T1 construct: purified GST-hMEK1 and mERK2 enzymes; fused on or other part: GST tag on hMEK1
Experimental: In order to identify ideal inhibitory compounds in a high throughput-screening (HTS) format a 96-well radiolabel incorporation format assay utilizing purified GST-hMEK1 and mERK2 enzymes was developed. Compounds were diluted from dimethylsulfoxide (DMSO) stocks into 1× Simplified Assay Buffer (SAB) (20 mM HEPES and 10 mM MgCl2). A typical 25 microliter assay contained 0.002 nanomoles MEK^CA, 0.02 nanomoles ERK, 0.25 nanomoles MBP, 0.25 nanomoles unlabeled ATP, and 0.1 μCi [γ^33P] ATP. The screening assay essentially comprised four additions. Five μ1 of diluted compound were dispensed to 96-well assay plates. Ten μl of 2.5× enzyme cocktail (MEK^CA and ERK only) were then added to each well followed by a pre-incubation for 15 minutes at 37° C. […] Finally, 200 μl of 10% trichloroacetic acid (TCA) were added and incubated for 30 minutes to halt the reaction and precipitate radio labeled protein products. A filter plate was placed in the Filtermate Harvester, wetted twice with water, and rinsed twice with 1% pyrophosphate to block nonspecific binding to the glass filter. An assay plate was then scanned and aspirated or harvested onto the filter plate. The filter plate was then washed 12 times with water. Water was displaced by two washes with absolute ethanol and the plate was removed and allowed to air dry for 30 minutes at room temperature. A back seal was applied manually and 40 μl of scintillation cocktail were dispensed per well. A top seal was applied and the plate was counted in the TopCount for two seconds per well.

[2] = system: MEK-ERK dependent luciferase expression (constitutively activated mutant MEK) in 293T cells; assay: Cell-based MEK-ERK dependent luciferase reporter assay in 293T cells; conditions: Homo sapiens, HEK-293T, minimum concentration causing 50% inhibition in cell-based assays, 24 hours incubation
Experimental: Activities of compounds were determined using a cell-based assay system. 293T cells were engineered to express a luciferase reporter protein in response to activation of ERK. ERK was activated by the doxycycline inducible expression of a constitutively activated mutant MEK. The activated MEK mutant had serines 218 and 222 replaced with aspartic acids. Therefore, addition of doxycycline to the media of cells induced an increase in MEK-ERK dependent luciferase expression.
Cells were plated at 5000 cells per well of a 384 well plate in 20 ul of media containing 10 ng/ml doxycycline. Compounds were resuspended in DMSO at a concentration of 20 mM. These compound stocks were diluted at least 200 fold so the concentration of DMSO was never above 0.5%. Cells were incubated with compounds for 24 hours at which time 25 ul of Steady-Glo (Promega Corp.) was added. The plates were then assayed for luminescence. Percent inhibition was calculated by dividing the luminescence of compound treated cells by control cells.

T1 sequence (P63085 2-358): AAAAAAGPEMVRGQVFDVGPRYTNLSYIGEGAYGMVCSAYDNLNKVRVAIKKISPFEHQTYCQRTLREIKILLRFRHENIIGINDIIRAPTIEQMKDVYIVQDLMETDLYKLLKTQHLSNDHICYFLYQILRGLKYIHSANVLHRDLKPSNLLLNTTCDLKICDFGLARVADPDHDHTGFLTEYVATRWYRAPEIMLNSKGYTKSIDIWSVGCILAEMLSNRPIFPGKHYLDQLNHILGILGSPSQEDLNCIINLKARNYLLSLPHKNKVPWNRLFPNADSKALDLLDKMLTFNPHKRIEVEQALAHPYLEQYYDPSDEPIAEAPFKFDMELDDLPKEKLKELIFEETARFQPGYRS
T1 sequence (Q02750 whole entry, the tested form may be a part): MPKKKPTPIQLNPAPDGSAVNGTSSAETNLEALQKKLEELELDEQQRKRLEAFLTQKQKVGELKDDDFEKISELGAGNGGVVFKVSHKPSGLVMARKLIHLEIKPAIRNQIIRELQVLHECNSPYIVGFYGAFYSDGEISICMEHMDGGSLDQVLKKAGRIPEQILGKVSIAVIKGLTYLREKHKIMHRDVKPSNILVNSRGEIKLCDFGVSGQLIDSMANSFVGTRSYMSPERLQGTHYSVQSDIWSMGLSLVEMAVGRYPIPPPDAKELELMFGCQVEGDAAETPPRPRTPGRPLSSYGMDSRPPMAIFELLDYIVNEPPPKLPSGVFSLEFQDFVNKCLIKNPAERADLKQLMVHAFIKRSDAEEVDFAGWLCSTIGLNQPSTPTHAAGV

Row | Structure (SMILES) | IC50 [1] [µM] | EC50 [2] [µM]
1 | COC(=O)c1ccccc1Nc1snc(O)c1C#N [Compound 27] | < 10 | 
2 | N#Cc1c(Br)nsc1Nc1ccccc1 [Compound 2] | 10 to 100 | < 10
3 | Cc1ccc(Nc2snc(N)c2C#N)cc1 [Compound 20] | < 10 | 
4 | N=C(N)c1c(O)nsc1Nc1ccc(Oc2ccccc2)cc1 [Compound 36] | < 10 | 
5 | N#Cc1c(O)nsc1Nc1cccc(Cl)c1 [Compound 10] | 10 to 100 | > 100
6 | CN(C)c1ccc(Nc2snc(O)c2C#N)c2ccccc12 [Compound 18] | < 10 | < 10
7 | N#Cc1c(O)nsc1NCCc1ccc(O)cc1 [Compound 35] | < 10 | 
8 | COC(=O)c1ccc(Nc2snc(O)c2C#N)cc1 [Compound 25] | < 10 | 
9 | CC(C)c1cccc(C(C)C)c1Nc1snc(O)c1C#N [Compound 16] | 10 to 100 | 10 to 100
10 | CC(C)Nc1snc(O)c1C#N [Compound 39] | < 10 | 
11 | N#Cc1c(O)nsc1Nc1ccccc1C(F)(F)F [Compound 19] | 10 to 100 | 
12 | CN(C)c1ccc2ccccc2c1Nc1snc(O)c1C#N [Compound 17] | < 10 | < 10
13 | N#Cc1c(O)nsc1Nc1ccc([N+](=O)[O-])cc1 [Compound 12] | < 10 | > 100
14 | COc1ccccc1Nc1snc(O)c1C#N [Compound 7] |  | > 100
15 | N#Cc1c(O)nsc1Nc1ccccc1Cl [Compound 11] | 10 to 100 | > 100
16 | COc1cc(-c2ccccc2)ccc1Nc1snc(O)c1C#N [Compound 14] | < 10 | > 100
17 | N#Cc1c(O)nsc1Nc1ccccc1F [Compound 26] | < 10 | 
18 | N#Cc1c(O)nsc1NCC1CCCO1 (stereo not shown) [Compound 34] | < 10 | 
19 | N#Cc1c(OC2CCCCC2)nsc1Nc1ccccc1 [Compound 38] | < 10 | 

Row | Structure (SMILES) | IC50 [1] [µM] | EC50 [2] [µM]
20 | N#Cc1c(O)nsc1Nc1cccc2ccccc12 [Compound 13] | < 10 | < 10
21 | CC(=O)c1ccc(Nc2snc(O)c2C#N)cc1 [Compound 22] | < 10 | 
22 | N#Cc1c(O)nsc1NCCCN1CCOCC1 [Compound 40] | < 10 | 
23 | N#Cc1c(O)nsc1Nc1ccc(Cl)cc1 [Compound 9] | 10 to 100 | > 100
24 | N#Cc1c(Nc2ccc(Br)cc2)s[nH]c1=O [Compound 24] | < 10 | 
25 | Cc1ccc(Nc2snc(O)c2C#N)cc1 [Compound 3] | 10 to 100 | < 10
26 | COc1ccc(Nc2snc(O)c2C#N)cc1 [Compound 6] |  | > 100
27 | N#Cc1c(O)nsc1N1CCCCC1 [Compound 33] | < 10 | 
28 | N#Cc1c(O)nsc1Nc1cccnc1 [Compound 29] | < 10 | 
29 | Cc1cccc(Nc2s[nH]c(=O)c2C#N)c1 [Compound 4] | 10 to 100 | 10 to 100
30 | CC(C)c1ccc(Nc2snc(O)c2C#N)cc1 [Compound 15] | < 10 | < 10
31 | CCCCNc1snc(O)c1C#N [Compound 32] | < 10 | 
32 | COc1cccc(Nc2snc(O)c2C#N)c1 [Compound 8] |  | > 100
33 | NC(=O)c1c(O)nsc1Nc1ccc(Oc2ccccc2)cc1 [Compound 37] | < 10 | 
34 | N#Cc1c(O)nsc1NC1CCc2ccccc21 (stereo not shown) [Compound 31] | < 10 | 
35 | N#Cc1c(O)nsc1Nc1ccccc1 [Compound 1] | < 10 | 10 to 100
36 | Cc1ccccc1Nc1snc(O)c1C#N [Compound 5] | 10 to 100 | 10 to 100
37 | N#Cc1c(O)nsc1Nc1ccc(N)cc1 [Compound 21] | < 10 | 
